System: MC38_sgStk11 tumor
Assay: Anti-tumor efficacy in murine subcutaneous MC38_sgStk11 tumor model
Format: in vivo, Mus musculus
Details: for T/C / TGI %: day 11
Description: Summary: An in vivo anti-tumor efficacy of double combination treatment of Anti-PD1 and HDAC1,2-selective inhibitor in a murine subcutaneous MC38_sgStk11 tumor model in […] mice was performed.
96 mice plus 39 spare mice of the species: Mus musculus: strain: C57BL/6; age 8-10 weeks; sex: female; and body weight: 16.9-20.0 g
The MC38_sgStk11 tumor cells were maintained in vitro as a monolayer culture in DMEM+2 mM glutamine supplemented with about 10% heat inactivated fetal bovine serum, about 100 U/ml penicillin and 100 μg/ml streptomycin at about 37° C. in an atmosphere of about 5% CO2 in air. The tumor cells were routinely sub-cultured twice weekly by trypsin-EDTA treatment. The cells growing in an exponential growth phase were harvested and counted for tumor inoculation.
Each mouse was inoculated subcutaneously at the right upper flank with MC38_sgStk11 tumor cells (0.5×106) in 0.1 ml of PBS for tumor development. Treatments were started on day 4 after tumor inoculation when the average tumor size reached 52 mm^3. The animals were assigned into groups according to a sorting standard operating procedures based upon their tumor volumes. Each group consisted of 8 tumor bearing mice. The testing article was administrated to the mice according to the predetermined regimen as shown in the experimental design table (Table 1-1).
All the procedures related to animal handling, care and the treatment in the study were performed according to the guidelines approved by the Institutional Animal Care and Use Committee (IACUC) of vendor following the guidance of the Association for Assessment and Accreditation of Laboratory Animal Care (AAALAC). At the time of routine monitoring, the animals were daily checked for any effects of tumor growth and treatments on normal behavior such as mobility, food and water consumption, body weight gain/loss (body weights were measured three times per week), eye/hair matting and any other abnormal effect as stated in the protocol. Death and observed clinical signs were recorded on the basis of the numbers of animals within each subset.
A primary endpoint was to see if the tumor growth could be delayed or mice could be cured. Tumor size was measured three times per week in two dimensions using a caliper, and the volume was expressed in mm3 using the formula: V=0.5 a×b2 where a and b are the long and short diameters of the tumor, respectively. The T/C value (in percent) is an indication of antitumor effectiveness; T and C are the mean volume of the treated and control groups, respectively, on a given day. TGI is calculated for each group using the formula: TGI (%)=[1−(Ti−T0)/(Vi−V0)]×100; Ti is the average tumor volume of a treatment group on a given day, T0 is the average tumor volume of the treatment group on the day of treatment start, Vi is the average tumor volume of the vehicle control group on the same day with Ti, and V0 is the average tumor volume of the vehicle group on the day of treatment start.
Statistical analysis of difference in the tumor volume among the groups were conducted on the data obtained at the best therapeutic time point at the day 11 after the start of treatment. A one-way ANOVA was performed for comparisons between groups. The survival analysis between groups was carried out with Kaplan-Meier test. p<0.05 was considered to be statistically significant.

[1] = Gr 5: Compound I 75 mg/kg PO QD + Anti-IgG2a 10 mg/kg IP BIW
[2] = Gr 6: Compound I 150 mg/kg D0-D4, 100 mg/kg D5-D48 PO QD + Anti-IgG2a 10 mg/kg IP BIW

Compound: C[S@@](=N)(=O)c1ccc(C(=O)Nc2cc(-c3ccc(F)cc3)ccc2N)cc1 [Compound I, (R)—N-(4-amino-4′-fluoro-[1,1′-biphenyl]-3-yl)-4-(S-methylsulfonimidoyl)benzamide]
- PR (partial regression) [1]: 0.0%
- Tumor Volume (Gr 5: Compound I 75 mg/kg PO QD + Anti-IgG2a 10 mg/kg IP BIW, day 0 of treatment): 52 ± 2 mm^3
- Tumor Volume (Gr 5: Compound I 75 mg/kg PO QD + Anti-IgG2a 10 mg/kg IP BIW, day 2 of treatment): 218 ± 12 mm^3
- Tumor Volume (Gr 5: Compound I 75 mg/kg PO QD + Anti-IgG2a 10 mg/kg IP BIW, day 4 of treatment): 485 ± 37 mm^3
- Tumor Volume (Gr 5: Compound I 75 mg/kg PO QD + Anti-IgG2a 10 mg/kg IP BIW, day 7 of treatment): 576 ± 45 mm^3
- Tumor Volume (Gr 5: Compound I 75 mg/kg PO QD + Anti-IgG2a 10 mg/kg IP BIW, day 9 of treatment): 622 ± 44 mm^3
- T/C [1]: 29.7%
- TGI % [1]: 72.1%
- Tumor Volume (Gr 5: Compound I 75 mg/kg PO QD + Anti-IgG2a 10 mg/kg IP BIW, day 11 of treatment): 632 ± 55 mm^3
- Tumor Volume (Gr 5: Compound I 75 mg/kg PO QD + Anti-IgG2a 10 mg/kg IP BIW, day 14 of treatment): 580 ± 85 mm^3
- Tumor Volume (Gr 5: Compound I 75 mg/kg PO QD + Anti-IgG2a 10 mg/kg IP BIW, day 16 of treatment): 557 ± 101 mm^3
- Tumor Volume (Gr 5: Compound I 75 mg/kg PO QD + Anti-IgG2a 10 mg/kg IP BIW, day 18 of treatment): 536 ± 109 mm^3
- Tumor Volume (Gr 5: Compound I 75 mg/kg PO QD + Anti-IgG2a 10 mg/kg IP BIW, day 21 of treatment): 514 ± 117 mm^3
- Tumor Volume (Gr 5: Compound I 75 mg/kg PO QD + Anti-IgG2a 10 mg/kg IP BIW, day 23 of treatment): 502 ± 138 mm^3
- Tumor Volume (Gr 5: Compound I 75 mg/kg PO QD + Anti-IgG2a 10 mg/kg IP BIW, day 25 of treatment): 477 ± 151 mm^3
- Tumor Volume (Gr 5: Compound I 75 mg/kg PO QD + Anti-IgG2a 10 mg/kg IP BIW, day 28 of treatment): 551 ± 171 mm^3
- Tumor Volume (Gr 5: Compound I 75 mg/kg PO QD + Anti-IgG2a 10 mg/kg IP BIW, day 30 of treatment): 815 ± 291 mm^3
- Tumor Volume (Gr 5: Compound I 75 mg/kg PO QD + Anti-IgG2a 10 mg/kg IP BIW, day 32 of treatment): 1001 ± 375 mm^3
- Tumor Volume (Gr 5: Compound I 75 mg/kg PO QD + Anti-IgG2a 10 mg/kg IP BIW, day 34 of treatment): 827 ± 268 mm^3
- Tumor Volume (Gr 5: Compound I 75 mg/kg PO QD + Anti-IgG2a 10 mg/kg IP BIW, day 38 of treatment): 14 mm^3
- Tumor Volume (Gr 5: Compound I 75 mg/kg PO QD + Anti-IgG2a 10 mg/kg IP BIW, day 42 of treatment): 13 mm^3
- Tumor Volume (Gr 5: Compound I 75 mg/kg PO QD + Anti-IgG2a 10 mg/kg IP BIW, day 45 of treatment): 6 mm^3
- Tumor Volume (Gr 5: Compound I 75 mg/kg PO QD + Anti-IgG2a 10 mg/kg IP BIW, day 49 after start of treatment): 0 mm^3
- Tumor Volume (Gr 5: Compound I 75 mg/kg PO QD + Anti-IgG2a 10 mg/kg IP BIW, day 52 after start of treatment): 0 mm^3
- Tumor Volume (Gr 5: Compound I 75 mg/kg PO QD + Anti-IgG2a 10 mg/kg IP BIW, day 56 after start of treatment): 0 mm^3
- Tumor Volume (Gr 5: Compound I 75 mg/kg PO QD + Anti-IgG2a 10 mg/kg IP BIW, day 59 after start of treatment): 0 mm^3
- Tumor Volume (Gr 5: Compound I 75 mg/kg PO QD + Anti-IgG2a 10 mg/kg IP BIW, day 63 after start of treatment): 0 mm^3
- Tumor Volume (Gr 5: Compound I 75 mg/kg PO QD + Anti-IgG2a 10 mg/kg IP BIW, day 66 after start of treatment): 0 mm^3
- CR (complete regression) [2]: 0.0%
- ORR (CR + PR) [2]: 0.0%
- PR (partial regression) [2]: 0.0%
- Tumor Volume (Gr 6: Compound I 150 mg/kg D0-D4, 100 mg/kg D5-D48 PO QD + Anti-IgG2a 10 mg/kg IP BIW, day 0 of treatment): 52 ± 2 mm^3
- Tumor Volume (Gr 6: Compound I 150 mg/kg D0-D4, 100 mg/kg D5-D48 PO QD + Anti-IgG2a 10 mg/kg IP BIW, day 2 of treatment): 205 ± 14 mm^3
- Tumor Volume (Gr 6: Compound I 150 mg/kg D0-D4, 100 mg/kg D5-D48 PO QD + Anti-IgG2a 10 mg/kg IP BIW, day 4 of treatment): 450 ± 40 mm^3
- Tumor Volume (Gr 6: Compound I 150 mg/kg D0-D4, 100 mg/kg D5-D48 PO QD + Anti-IgG2a 10 mg/kg IP BIW, day 7 of treatment): 508 ± 40 mm^3
- Tumor Volume (Gr 6: Compound I 150 mg/kg D0-D4, 100 mg/kg D5-D48 PO QD + Anti-IgG2a 10 mg/kg IP BIW, day 9 of treatment): 636 ± 19 mm^3
- T/C [2]: 41.2%
- TGI % [2]: 60.2%
- Tumor Volume (Gr 6: Compound I 150 mg/kg D0-D4, 100 mg/kg D5-D48 PO QD + Anti-IgG2a 10 mg/kg IP BIW, day 11 of treatment): 878 ± 66 mm^3
- Tumor Volume (Gr 6: Compound I 150 mg/kg D0-D4, 100 mg/kg D5-D48 PO QD + Anti-IgG2a 10 mg/kg IP BIW, day 14 of treatment): 1090 ± 167 mm^3
- Tumor Volume (Gr 6: Compound I 150 mg/kg D0-D4, 100 mg/kg D5-D48 PO QD + Anti-IgG2a 10 mg/kg IP BIW, day 16 of treatment): 1236 ± 211 mm^3
- Tumor Volume (Gr 6: Compound I 150 mg/kg D0-D4, 100 mg/kg D5-D48 PO QD + Anti-IgG2a 10 mg/kg IP BIW, day 18 of treatment): 1414 ± 243 mm^3
- Tumor Volume (Gr 6: Compound I 150 mg/kg D0-D4, 100 mg/kg D5-D48 PO QD + Anti-IgG2a 10 mg/kg IP BIW, day 21 of treatment): 1728 ± 366 mm^3
- Tumor Volume (Gr 6: Compound I 150 mg/kg D0-D4, 100 mg/kg D5-D48 PO QD + Anti-IgG2a 10 mg/kg IP BIW, day 23 of treatment): 2198 ± 472 mm^3
- Tumor Volume (Gr 6: Compound I 150 mg/kg D0-D4, 100 mg/kg D5-D48 PO QD + Anti-IgG2a 10 mg/kg IP BIW, day 25 of treatment): 2054 ± 638 mm^3
- Tumor Volume (Gr 6: Compound I 150 mg/kg D0-D4, 100 mg/kg D5-D48 PO QD + Anti-IgG2a 10 mg/kg IP BIW, day 28 of treatment): 1705 ± 330 mm^3
- Tumor Volume (Gr 6: Compound I 150 mg/kg D0-D4, 100 mg/kg D5-D48 PO QD + Anti-IgG2a 10 mg/kg IP BIW, day 30 of treatment): 1840 ± 326 mm^3
- Tumor Volume (Gr 6: Compound I 150 mg/kg D0-D4, 100 mg/kg D5-D48 PO QD + Anti-IgG2a 10 mg/kg IP BIW, day 32 of treatment): 1949 ± 395 mm^3
- Tumor Volume (Gr 6: Compound I 150 mg/kg D0-D4, 100 mg/kg D5-D48 PO QD + Anti-IgG2a 10 mg/kg IP BIW, day 34 of treatment): 2089 ± 389 mm^3
